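Cultured in 96-well plates, cells were exposed to test compound for 48 hours across five concentrations. GI50: concentration for 50% inhibition of growth. TGI is the concentration that stops growth completely.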
How the values were obtained:
Assay in all cases: NCI-60 cell line screen, 48 h
CCRF-CEM leukemia = tested on: CCRF-CEM leukemia
A549 NSCLC = tested on: A549 NSCLC
SNB-75 CNS = tested on: SNB-75 CNS
UACC-257 melanoma = tested on: UACC-257 melanoma
HL-60(TB) leukemia = tested on: HL-60(TB) leukemia
MALME-3M melanoma = tested on: MALME-3M melanoma
SK-MEL-28 melanoma = tested on: SK-MEL-28 melanoma
NCI-H522 lung = tested on: NCI-H522 lung
KM12 colon = tested on: KM12 colon
TK-10 renal = tested on: TK-10 renal
COLO 205 colon = tested on: COLO 205 colon
786-0 renal = tested on: 786-0 renal
A498 renal = tested on: A498 renal
OVCAR-5 ovarian = tested on: OVCAR-5 ovarian
BT-549 breast = tested on: BT-549 breast
HOP-62 NSCLC = tested on: HOP-62 NSCLC
HS 578T breast = tested on: HS 578T breast
PC-3 prostate = tested on: PC-3 prostate
IGROV1 ovarian = tested on: IGROV1 ovarian
OVCAR-4 ovarian = tested on: OVCAR-4 ovarian
ACHN renal = tested on: ACHN renal
CAKI-1 renal = tested on: CAKI-1 renal
NCI-H460 lung = tested on: NCI-H460 lung
K-562 leukemia = tested on: K-562 leukemia
OVCAR-3 ovarian = tested on: OVCAR-3 ovarian
DU-145 prostate = tested on: DU-145 prostate
HCT-15 colon = tested on: HCT-15 colon
SR leukemia = tested on: SR leukemia
LOX IMVI melanoma = tested on: LOX IMVI melanoma
SF-295 CNS = tested on: SF-295 CNS
NCI-H23 lung = tested on: NCI-H23 lung
HCT-116 colon = tested on: HCT-116 colon
HT29 colon = tested on: HT29 colon
UACC-62 melanoma = tested on: UACC-62 melanoma
T-47D breast = tested on: T-47D breast
SK-OV-3 ovarian = tested on: SK-OV-3 ovarian
UO-31 renal = tested on: UO-31 renal
RXF 393 renal = tested on: RXF 393 renal
RPMI-8226 leukemia = tested on: RPMI-8226 leukemia
NCI-H226 lung = tested on: NCI-H226 lung
SN12C renal = tested on: SN12C renal
MDA-MB-231 breast = tested on: MDA-MB-231 breast
SW-620 colon = tested on: SW-620 colon
NCI/ADR-RES ovarian = tested on: NCI/ADR-RES ovarian
MOLT-4 leukemia = tested on: MOLT-4 leukemia
M14 melanoma = tested on: M14 melanoma
SF-539 CNS = tested on: SF-539 CNS
SK-MEL-5 melanoma = tested on: SK-MEL-5 melanoma
MDA-MB-435 = tested on: MDA-MB-435
SF-268 CNS = tested on: SF-268 CNS
MCF7 breast = tested on: MCF7 breast
EKVX NSCLC = tested on: EKVX NSCLC
HCC-2998 colon = tested on: HCC-2998 colon
SNB-19 CNS = tested on: SNB-19 CNS
OVCAR-8 ovarian = tested on: OVCAR-8 ovarian
U251 CNS = tested on: U251 CNS

`CN(C)c1ccc(Nc2ncnc3ccccc23)cc1` was tested, and the GI50 (CCRF-CEM leukemia) was greater than 100 µM, the TGI (CCRF-CEM leukemia) was greater than 100 µM and the GI50 (A549 NSCLC) was greater than 100 µM. The TGI (A549 NSCLC) was greater than 100 µM, the GI50 (SNB-75 CNS) was greater than 100 µM and the TGI (SNB-75 CNS) was greater than 100 µM. It also gave a GI50 (UACC-257 melanoma) greater than 100 µM, a TGI (UACC-257 melanoma) greater than 100 µM and a GI50 (HL-60(TB) leukemia) greater than 100 µM. The TGI (HL-60(TB) leukemia) was greater than 100 µM, the GI50 (MALME-3M melanoma) was greater than 100 µM and the TGI (MALME-3M melanoma) was greater than 100 µM. It also gave a GI50 (SK-MEL-28 melanoma) greater than 100 µM, a TGI (SK-MEL-28 melanoma) greater than 100 µM and a GI50 (NCI-H522 lung) greater than 100 µM. The TGI (NCI-H522 lung) was greater than 100 µM, the GI50 (KM12 colon) was greater than 100 µM and the TGI (KM12 colon) was greater than 100 µM. It also gave a GI50 (TK-10 renal) greater than 100 µM, a TGI (TK-10 renal) greater than 100 µM and a GI50 (COLO 205 colon) greater than 100 µM. For the same compound, the TGI (COLO 205 colon) was greater than 100 µM, the GI50 (786-0 renal) was greater than 100 µM and the TGI (786-0 renal) was greater than 100 µM. It also gave a GI50 (A498 renal) greater than 100 µM, a TGI (A498 renal) greater than 100 µM and a GI50 (OVCAR-5 ovarian) greater than 100 µM. The TGI (OVCAR-5 ovarian) was greater than 100 µM, the GI50 (BT-549 breast) was greater than 100 µM and the TGI (BT-549 breast) was greater than 100 µM. It also gave a GI50 (HOP-62 NSCLC) greater than 100 µM, a TGI (HOP-62 NSCLC) greater than 100 µM and a GI50 (HS 578T breast) greater than 100 µM. It also gave a TGI (HS 578T breast) greater than 100 µM, a GI50 (PC-3 prostate) greater than 100 µM and a TGI (PC-3 prostate) greater than 100 µM. For the same compound, the GI50 (IGROV1 ovarian) was greater than 100 µM, the TGI (IGROV1 ovarian) was greater than 100 µM and the GI50 (OVCAR-4 ovarian) was greater than 100 µM. It also gave a TGI (OVCAR-4 ovarian) greater than 100 µM, a GI50 (ACHN renal) greater than 100 µM and a TGI (ACHN renal) greater than 100 µM. The GI50 (CAKI-1 renal) was greater than 100 µM, the TGI (CAKI-1 renal) was greater than 100 µM and the GI50 (NCI-H460 lung) was greater than 100 µM. For the same compound, the TGI (NCI-H460 lung) was greater than 100 µM, the GI50 (K-562 leukemia) was greater than 100 µM and the TGI (K-562 leukemia) was greater than 100 µM. It also gave a GI50 (OVCAR-3 ovarian) greater than 100 µM, a TGI (OVCAR-3 ovarian) greater than 100 µM and a GI50 (DU-145 prostate) greater than 100 µM. The TGI (DU-145 prostate) was greater than 100 µM, the GI50 (HCT-15 colon) was greater than 100 µM and the TGI (HCT-15 colon) was greater than 100 µM. It also gave a GI50 (SR leukemia) of 54.3 µM, a TGI (SR leukemia) greater than 100 µM and a GI50 (LOX IMVI melanoma) greater than 100 µM. It also gave a TGI (LOX IMVI melanoma) greater than 100 µM, a GI50 (SF-295 CNS) greater than 100 µM and a TGI (SF-295 CNS) greater than 100 µM. It also gave a GI50 (NCI-H23 lung) greater than 100 µM, a TGI (NCI-H23 lung) greater than 100 µM and a GI50 (HCT-116 colon) greater than 100 µM. It also gave a TGI (HCT-116 colon) greater than 100 µM, a GI50 (HT29 colon) greater than 100 µM and a TGI (HT29 colon) greater than 100 µM. It also gave a GI50 (UACC-62 melanoma) greater than 100 µM, a TGI (UACC-62 melanoma) greater than 100 µM and a GI50 (T-47D breast) greater than 100 µM. For the same compound, the TGI (T-47D breast) was greater than 100 µM, the GI50 (SK-OV-3 ovarian) was greater than 100 µM and the TGI (SK-OV-3 ovarian) was greater than 100 µM. It also gave a GI50 (UO-31 renal) greater than 100 µM, a TGI (UO-31 renal) greater than 100 µM and a GI50 (RXF 393 renal) greater than 100 µM. The TGI (RXF 393 renal) was greater than 100 µM, the GI50 (RPMI-8226 leukemia) was greater than 100 µM and the TGI (RPMI-8226 leukemia) was greater than 100 µM. It also gave a GI50 (NCI-H226 lung) greater than 100 µM, a TGI (NCI-H226 lung) greater than 100 µM and a GI50 (SN12C renal) greater than 100 µM. It also gave a TGI (SN12C renal) greater than 100 µM, a GI50 (MDA-MB-231 breast) greater than 100 µM and a TGI (MDA-MB-231 breast) greater than 100 µM. It also gave a GI50 (SW-620 colon) greater than 100 µM, a TGI (SW-620 colon) greater than 100 µM and a GI50 (NCI/ADR-RES ovarian) greater than 100 µM. For the same compound, the TGI (NCI/ADR-RES ovarian) was greater than 100 µM, the GI50 (MOLT-4 leukemia) was 18.8 µM and the TGI (MOLT-4 leukemia) was greater than 100 µM. It also gave a GI50 (M14 melanoma) greater than 100 µM, a TGI (M14 melanoma) greater than 100 µM and a GI50 (SF-539 CNS) greater than 100 µM. It also gave a TGI (SF-539 CNS) greater than 100 µM, a GI50 (SK-MEL-5 melanoma) greater than 100 µM and a TGI (SK-MEL-5 melanoma) greater than 100 µM. It also gave a GI50 (MDA-MB-435) greater than 100 µM, a TGI (MDA-MB-435) greater than 100 µM and a GI50 (SF-268 CNS) greater than 100 µM. It also gave a TGI (SF-268 CNS) greater than 100 µM, a GI50 (MCF7 breast) greater than 100 µM and a TGI (MCF7 breast) greater than 100 µM. It also gave a GI50 (EKVX NSCLC) greater than 100 µM, a TGI (EKVX NSCLC) greater than 100 µM and a GI50 (HCC-2998 colon) greater than 100 µM. The TGI (HCC-2998 colon) was greater than 100 µM, the GI50 (SNB-19 CNS) was greater than 100 µM and the TGI (SNB-19 CNS) was greater than 100 µM. The GI50 (OVCAR-8 ovarian) was greater than 100 µM, the TGI (OVCAR-8 ovarian) was greater than 100 µM and the GI50 (U251 CNS) was greater than 100 µM. It also gave a TGI (U251 CNS) greater than 100 µM.

— PubChem BioAssay (NCI)
